{
  "source": "patent US20230013669A1",
  "about": "“Antibacterial Treatment Using a Cannabinoid and an Active Agent” (priority 2019, published 2023)",
  "type_in_all_cases": "cell-based",
  "key": {"[1]": {"tested_on": "Escherichia coli ATCC 25922 (GN_001)", "assay": "MIC micro-broth dilution assay (Example 1 method)", "settings": "for MIC: ATCC25922"}, "[2]": {"tested_on": "Escherichia coli ATCC 25922", "assay": "microbe, parasite or virus in culture", "method": "(§1) The inoculum was then diluted in CaMHB to give a mid-log phase cultures and 40 μL was added to each well from column 1 to column 18, and column 23. 45 μL of the inoculum was added to each well from column 19 to column 22 to give the final cell density of 5×10^5 CFU/mL. The plates were incubated at 37° C. for 18-20h.\n(§2) Optical density was read at 600 nm (OD600) using Gen5 Spectrophotometer. […] Analysis was performed using Microsoft Excel."}, "[3]": {"tested_on": "Klebsiella pneumoniae ATCC 700603", "assay": "microbe, parasite or virus in culture", "method": "as §1, §2"}, "[4]": {"tested_on": "Acinetobacter baumannii AL1851, IpxA mutant; Lipid A deficient (GN_237)", "assay": "MIC broth microdilution, 96-well, visual reading (Example 11)", "method": "(§3) The experiment was performed to investigate the antimicrobial activity of cannabidiol (CBD) against an LPS deficient strain (GN_237 Acinetobacter baumannii, IpxA mutant; Lipid A deficient; obtained by colistin selection from base strain ATCC 19606) and its parent strain (GN_034, Acinetobacter baumannii, ATCC 19606).\n(§4) All plates had flat bottom wells and were covered with low-evaporation lids.\n(§5) Two biological replicates ×2 technical replicates were conducted on separate days (final n=4). Inhibition of bacterial growth was determined visually, where the MIC was recorded as the lowest compound concentration with no visible growth."}, "[5]": {"tested_on": "Acinetobacter baumannii ATCC 19606 Type Strain (GN_034)", "assay": "MIC broth microdilution, 96-well, visual reading (Example 11)", "method": "as §3, §4, §5"}, "[6]": {"tested_on": "Klebsiella pneumoniae ATCC 700603", "assay": "Synergy of cannabidiol with cell-wall disrupting agent (CBD MIC in combination, FICI)", "settings": "for FICI: CBD MIC taken as 256 μg/mL", "method": "Methods were as for Example 1. Cannabidiol was tested in combination with cefotetan.\nMethods were as for Example 1. Cannabidiol was tested in combination with aztreonam.\nMethods were as for Example 1. Cannabidiol was tested in combination with cefepime.\nMethods were as for Example 1. Cannabidiol was tested in combination with octapeptin C4.\nMethods were as for Example 1. Cannabidiol was tested in combination with Spero SPR206. The experiments were carried out three times."}, "[7]": {"settings": "Example 10 Table 38, compound alone, replicates"}},
  "note": "Values joined by “and” are separate entries in the source; they are usually repeats but may differ in a detail not shown here. Identical values can stand only once. Like-named read-outs stand apart in the source and are kept apart here.",
  "data": [
    {"smiles": "C=C(C)C1CCC(C)=CC1c1c(O)cc(CCCCC)cc1O", "note": "(centres unmarked) [Cannabidiol, 2-[3-methyl-6-(1-methylethenyl)-2-cyclohexen-1-yl]-5-pentyl-1,3-benzenediol]", "values": [
      {"measurement": "MIC", "setting": "[1]; CBD alone, Escherichia coli ATCC 25922, read-out: CBD MIC", "result": 256, "unit": "mg/L"},
      {"measurement": "CBD MIC", "setting": "[1]; CBD alone", "result": 256, "unit": "mg/L"},
      {"measurement": "CBD MIC", "setting": "[1]; Escherichia coli ATCC 25922, CBD alone", "result": 256, "unit": "mg/L"},
      {"measurement": "MIC", "setting": "[1]; Escherichia coli, Example 1 Table 3, GN_001, compound alone, replicates, read-out: Minimal Inhibitory Concentration (MIC)", "result": "> 256", "unit": "mg/L"},
      {"measurement": "MIC", "setting": "[1]; Escherichia coli, Example 3 Table 11, GN_001, compound alone, replicates, read-out: Minimum Inhibitory Concentration (MIC)", "result": "> 256", "unit": "mg/L"},
      {"measurement": "Minimal Inhibitory Concentration (MIC)", "setting": "[1]; Example 1 Table 3, GN_001, compound alone, replicates", "result": ">256", "unit": "mg/L"},
      {"measurement": "Minimum Inhibitory Concentration (MIC)", "setting": "[1]; Example 3 Table 11, GN_001, compound alone, replicates", "result": ">256", "unit": "mg/L"},
      {"measurement": "Minimum Inhibitory Concentration (MIC)", "setting": "[1]; Example 6 Table 23, GN_001, compound alone, replicates", "result": ">256", "unit": "mg/L"},
      {"measurement": "Minimal Inhibitory Concentration (MIC)", "setting": "[1]; Example 7 Table 27, GN_001, compound alone, replicates", "result": ">256", "unit": "mg/L"},
      {"measurement": "MIC", "setting": "[2]; Escherichia coli, ATCC25922, Example 10 Table 38, compound alone, replicates, read-out: MIC", "result": "> 256", "unit": "mg/L"},
      {"measurement": "MIC", "setting": "[2]; Escherichia coli, ATCC25922, Example 10 Table 39, read-out: CBD MIC (CBD, alone)", "result": 256, "unit": "mg/L"},
      {"measurement": "MIC", "setting": "[2]; [7]", "result": ">256", "unit": "mg/L"},
      {"measurement": "MIC", "setting": "[3]; [7]", "result": ">256", "unit": "mg/L"},
      {"measurement": "MIC", "setting": "[3]; Klebsiella pneumoniae, ATCC700603, Example 10 Table 38, compound alone, replicates, read-out: MIC", "result": "> 256", "unit": "mg/L"},
      {"measurement": "MIC", "setting": "[3]; Klebsiella pneumoniae, ATCC700603, Example 10 Table 39, read-out: CBD MIC (CBD, alone)", "result": 256, "unit": "mg/L"},
      {"measurement": "MIC", "setting": "[4]; Acinetobacter baumannii, read-out: MIC (Test results), Example 11 Table 41, GN_237, n=4 replicates", "result": 0.25, "unit": "mg/L"},
      {"measurement": "activity alone", "setting": "[4]; Example 11, Lipid A deficient GN_237", "result": "effective"},
      {"measurement": "MIC (Test results)", "setting": "[4]; Example 11 Table 41, GN_237, n=4 replicates", "result": "0.25 μg/mL and 0.125 μg/mL (2×)"},
      {"measurement": "MIC", "setting": "[5]; Acinetobacter baumannii, ATCC19606, Example 11 Table 41, GN_034, n=4 replicates, read-out: MIC (Test results)", "result": "> 128", "unit": "mg/L"},
      {"measurement": "activity alone", "setting": "[5]; Example 11, parent strain GN_034", "result": "ineffective"},
      {"measurement": "MIC (Test results)", "setting": "[5]; Example 11 Table 41, GN_034, n=4 replicates", "result": ">128", "unit": "mg/L"},
      {"measurement": "CBD MIC with Aztreonam", "setting": "[6]; Aztreonam at 64 μg/mL", "result": 0.001, "unit": "mg/L"},
      {"measurement": "FICI", "setting": "[6]; CBD with Aztreonam at 2 μg/mL", "result": 1},
      {"measurement": "FICI", "setting": "[6]; CBD with Aztreonam at 4 μg/mL", "result": 1},
      {"measurement": "FICI", "setting": "[6]; CBD with Aztreonam at 8 μg/mL", "result": 1.001},
      {"measurement": "FICI", "setting": "[6]; CBD with Aztreonam at 16 μg/mL", "result": 1.002},
      {"measurement": "FICI", "setting": "[6]; CBD with Aztreonam at 32 μg/mL", "result": 1.004},
      {"measurement": "FICI", "setting": "[6]; CBD with Aztreonam at 64 μg/mL", "result": 0.007816},
      {"measurement": "FICI range", "setting": "[6]; CBD with Aztreonam, Synergy table (Table 76)", "result": 0.008},
      {"measurement": "FICI range", "setting": "[6]; CBD with Aztreonam, all tested concentrations (Table 74)", "result": "0.01-1"},
      {"measurement": "FICI", "setting": "[6]; CBD with Cefepime at 0.015 μg/mL", "result": 1.015},
      {"measurement": "FICI", "setting": "[6]; CBD with Cefepime at 0.031 μg/mL", "result": 1.031},
      {"measurement": "FICI", "setting": "[6]; CBD with Cefepime at 0.062 μg/mL", "result": 1.062},
      {"measurement": "FICI", "setting": "[6]; CBD with Cefepime at 0.5 μg/mL", "result": 1.5},
      {"measurement": "FICI range", "setting": "[6]; CBD with Cefepime, all tested concentrations (Table 79)", "result": "1.02-1.5"},
      {"measurement": "FICI", "setting": "[6]; CBD with Cefotetan at 0.015 μg/mL", "result": "1.03 and 1.015"},
      {"measurement": "FICI", "setting": "[6]; CBD with Cefotetan at 0.031 μg/mL", "result": "1.062 and 1.031"},
      {"measurement": "FICI", "setting": "[6]; CBD with Cefotetan at 0.062 μg/mL", "result": "1.124 and 1.062"},
      {"measurement": "FICI", "setting": "[6]; CBD with Cefotetan at 0.25 μg/mL", "result": 1.5},
      {"measurement": "FICI", "setting": "[6]; CBD with Cefotetan at 0.5 μg/mL", "result": "1 and 0.5"},
      {"measurement": "FICI", "setting": "[6]; CBD with Octapeptin C4 at 0.25 μg/mL", "result": 1.0625},
      {"measurement": "FICI", "setting": "[6]; CBD with Octapeptin C4 at 0.5 μg/mL", "result": 1.0625},
      {"measurement": "FICI", "setting": "[6]; CBD with Octapeptin C4 at 2 μg/mL", "result": 1.5},
      {"measurement": "FICI", "setting": "[6]; CBD with Octapeptin C4 at […]", "result": 1.016},
      {"measurement": "FICI range", "setting": "[6]; CBD with Spero SPR206, 1st of 3 experiments", "result": "0.52-16"},
      {"measurement": "FICI range", "setting": "[6]; CBD with Spero SPR206, 2nd of 3 experiments", "result": "0.28-1.12"},
      {"measurement": "FICI range", "setting": "[6]; CBD with Spero SPR206, 3rd of 3 experiments", "result": "1.25-8"},
      {"measurement": "FICI", "setting": "[6]; CBD with Spero SPR206 at 0.007 μg/mL, 2nd of 3 experiments", "result": 1.014},
      {"measurement": "FICI", "setting": "[6]; CBD with Spero SPR206 at 0.015 μg/mL, 2nd of 3 experiments", "result": 1.03},
      {"measurement": "FICI", "setting": "[6]; CBD with Spero SPR206 at 0.031 μg/mL, 2nd of 3 experiments", "result": 1.062},
      {"measurement": "FICI", "setting": "[6]; CBD with Spero SPR206 at 0.062 μg/mL, 2nd of 3 experiments", "result": 1.124},
      {"measurement": "FICI", "setting": "[6]; CBD with Spero SPR206 at 0.25 μg/mL, 1st of 3 experiments", "result": 1},
      {"measurement": "FICI", "setting": "[6]; CBD with Spero SPR206 at 0.25 μg/mL, 2nd of 3 experiments", "result": 0.5039}
    ]}
  ]
}
